From patent US11180474B2 (BRISTOL-MYERS SQUIBB COMPANY, priority 2016, dated 2021)

Tests used:
[1] = target: T1, human TLR7 (Homo sapiens, UniProt Q9NYK1); test: TLR7 inhibition reporter assay (HEK-Blue cells, SEAP reporter, gardiquimod stimulation); type: cell-based; settings: HEK-Blue cells overexpressing human TLR7, gardiquimod 7.5 μM
T1 construct: host or cells: HEK-Blue cells
T1 sequence (Q9NYK1 27-1049): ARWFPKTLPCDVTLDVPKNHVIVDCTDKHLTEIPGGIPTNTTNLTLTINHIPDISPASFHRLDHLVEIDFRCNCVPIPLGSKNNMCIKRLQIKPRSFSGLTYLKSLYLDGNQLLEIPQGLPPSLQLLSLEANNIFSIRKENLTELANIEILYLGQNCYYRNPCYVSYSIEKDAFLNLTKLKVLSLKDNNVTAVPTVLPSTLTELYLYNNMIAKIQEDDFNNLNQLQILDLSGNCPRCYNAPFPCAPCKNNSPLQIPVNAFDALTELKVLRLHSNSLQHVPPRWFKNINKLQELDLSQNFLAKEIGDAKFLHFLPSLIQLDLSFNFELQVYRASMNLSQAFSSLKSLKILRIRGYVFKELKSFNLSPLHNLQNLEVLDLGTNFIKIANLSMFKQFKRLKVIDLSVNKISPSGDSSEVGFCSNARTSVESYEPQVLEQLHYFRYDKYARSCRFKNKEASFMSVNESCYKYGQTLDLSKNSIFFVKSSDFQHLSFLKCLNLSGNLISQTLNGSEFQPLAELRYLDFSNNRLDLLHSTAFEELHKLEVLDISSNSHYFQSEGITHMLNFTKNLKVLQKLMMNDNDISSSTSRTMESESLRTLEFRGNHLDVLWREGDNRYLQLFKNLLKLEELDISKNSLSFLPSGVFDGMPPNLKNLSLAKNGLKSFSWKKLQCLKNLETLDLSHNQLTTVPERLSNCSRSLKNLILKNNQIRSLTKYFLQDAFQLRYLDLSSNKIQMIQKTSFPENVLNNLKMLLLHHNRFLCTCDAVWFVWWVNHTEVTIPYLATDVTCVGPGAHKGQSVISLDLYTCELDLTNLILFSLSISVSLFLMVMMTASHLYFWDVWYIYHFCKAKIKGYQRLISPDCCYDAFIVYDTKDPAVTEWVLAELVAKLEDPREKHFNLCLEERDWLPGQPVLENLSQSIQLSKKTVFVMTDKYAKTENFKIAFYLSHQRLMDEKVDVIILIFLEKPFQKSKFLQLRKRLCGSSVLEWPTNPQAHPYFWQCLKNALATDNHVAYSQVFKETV
Procedure, shortened: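 Cells (15000/well for TLR7, 20,000 for TLR8) were treated with compounds over 0.05 nM-50 μM final. After 22 h at 37° C, 5% CO2, SEAP was measured with HEK-Blue Detection reagent; percent inhibition was taken as reduction of agonist-plus-DMSO signal relative to a known inhibitor.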

[2] = target: T2, human TLR9 (Homo sapiens, UniProt Q9NR96); test: TLR9 inhibition reporter assay (HEK-Blue cells, SEAP reporter, ODN2006 stimulation); type: cell-based; settings: HEK-Blue cells overexpressing human TLR9, ODN2006 5 nM
T2 construct: host or cells: HEK-Blue cells
T2 sequence (Q9NR96 26-1032): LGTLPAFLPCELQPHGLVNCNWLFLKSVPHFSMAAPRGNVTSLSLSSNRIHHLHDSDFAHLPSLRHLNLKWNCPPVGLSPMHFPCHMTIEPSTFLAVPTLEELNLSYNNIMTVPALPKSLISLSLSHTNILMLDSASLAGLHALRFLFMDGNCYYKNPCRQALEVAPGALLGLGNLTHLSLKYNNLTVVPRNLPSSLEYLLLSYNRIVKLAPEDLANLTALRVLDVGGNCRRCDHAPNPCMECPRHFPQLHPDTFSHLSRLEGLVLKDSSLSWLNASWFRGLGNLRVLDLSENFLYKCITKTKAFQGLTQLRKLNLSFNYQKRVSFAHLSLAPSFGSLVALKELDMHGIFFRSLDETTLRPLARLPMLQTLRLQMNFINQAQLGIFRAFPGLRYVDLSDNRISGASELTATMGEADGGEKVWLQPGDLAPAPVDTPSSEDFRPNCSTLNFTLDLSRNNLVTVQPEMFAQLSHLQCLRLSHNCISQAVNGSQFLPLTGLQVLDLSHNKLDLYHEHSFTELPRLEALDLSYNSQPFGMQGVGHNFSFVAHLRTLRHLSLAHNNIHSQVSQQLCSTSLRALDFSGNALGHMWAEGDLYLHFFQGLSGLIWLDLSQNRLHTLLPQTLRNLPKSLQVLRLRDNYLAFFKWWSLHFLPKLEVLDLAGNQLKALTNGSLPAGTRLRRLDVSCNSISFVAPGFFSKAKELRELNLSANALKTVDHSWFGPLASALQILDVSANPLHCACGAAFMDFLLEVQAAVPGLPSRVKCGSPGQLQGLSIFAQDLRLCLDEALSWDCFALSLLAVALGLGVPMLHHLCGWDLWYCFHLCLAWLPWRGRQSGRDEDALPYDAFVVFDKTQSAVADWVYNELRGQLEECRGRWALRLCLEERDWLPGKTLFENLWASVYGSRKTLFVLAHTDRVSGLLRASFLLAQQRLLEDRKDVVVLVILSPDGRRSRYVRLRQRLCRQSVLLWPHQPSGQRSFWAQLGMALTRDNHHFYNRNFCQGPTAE
Procedure, shortened: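 Human TLR7/8/9 HEK-Blue reporter lines; dose range 0.05 nM–50 μM; 30 min RT preincubation; stimulus gardiquimod 7.5 μM / R848 15.9 μM / ODN2006 5 nM respectively; 22 h, 37 °C; SEAP detected colorimetrically.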

Structure (SMILES)	IC50 [1]	IC50 [2]
COc1ccc(-c2[nH]c3ccc(C4CCN(C(C)c5ccccc5)CC4)cc3c2C)cc1OC (stereo not drawn) [Example 27, 2-(3,4-dimethoxyphenyl)-3-methyl-5-(1-(1-phenylethyl)piperidin-4-yl)-1H-indole]	850 nM	2800 nM
COc1ccc(-c2[nH]c3ccc(C4CCN(C5CCCN(CC(C)C)C5)CC4)cc3c2C)cc1OC (stereo not drawn) [Example 417, 2-(3,4-dimethoxyphenyl)-5-(1′-isobutyl-[1,3′-bipiperidin]-4-yl)-3-methyl-1H-indole]	1180 nM	565 nM
COc1ccc(-c2[nH]c3ccc(C4CCN(C5CCCN(C(C)C)CC5)CC4)cc3c2C)cc1OC (stereo not drawn) [Example 92, 2-(3,4-dimethoxyphenyl)-5-(1-(1-isopropylazepan-4-yl)piperidin-4-yl)-3-methyl-1H-indole]	576 nM	59 nM
COc1ccc(-c2[nH]c3ccc(C4CCN(Cc5ccc(N(C)C)c6ccccc56)CC4)cc3c2C)cc1OC [Example 19, 4-((4-(2-(3,4-dimethoxyphenyl)-3-methyl-1H-indol-5-yl)piperidin-1-yl)methyl)-N,N-dimethylnaphthalen-1-amine]	10500 nM	2550 nM
CCCN1CCC(N2CCC(c3ccc4[nH]c(-c5ccc(OC)c(OC)c5)c(C)c4c3)CC2)CC1 [Example 63, 2-(3,4-dimethoxyphenyl)-3-methyl-5-(1′-propyl-[1,4′-bipiperidin]-4-yl)-1H-indole]	321 nM	132 nM
COc1ccc(-c2[nH]c3ccc(C4CCN(C5CCCN(C6COC6)CC5)CC4)cc3c2C)cc1OC (stereo not drawn) [Example 96, 2-(3,4-dimethoxyphenyl)-3-methyl-5-(1-(1-(oxetan-3-yl)azepan-4-yl)piperidin-4-yl)-1H-indole]	2530 nM	186 nM
CCc1c(-c2ccc(OC)c(OC)c2)[nH]c2ccc(C3CCN(C(=O)CNC4(CO)CCCC4)CC3)cc12 [Example 160, 1-(4-(2-(3,4-dimethoxyphenyl)-3-ethyl-1H-indol-5-yl)piperidin-1-yl)-2-((1-(hydroxymethyl)cyclopentyl)amino)ethan-1-one]	118 nM	1900 nM
COc1ccc(-c2[nH]c3ccc(C4CCN(C5CCCNC5)CC4)cc3c2C)cc1OC (stereo not drawn) [Example 106, 5-([1,3′-bipiperidin]-4-yl)-2-(3,4-dimethoxyphenyl)-3-methyl-1H-indole]	905 nM	307 nM
COc1ccc(-c2[nH]c3ccc(C4CCN(Cc5ccc(N6CCN(C)CC6)cc5)CC4)cc3c2C)cc1OC [Example 42, 2-(3,4-dimethoxyphenyl)-3-methyl-5-(1-(4-(4-methylpiperazin-1-yl)benzyl)piperidin-4-yl)-1H-indole]	687 nM	120 nM
CCC(CC)CN1CCC(c2ccc3[nH]c(-c4ccc(OC)c(OC)c4)c(C(C)C)c3c2)CC1 [Example 265, 2-(3,4-dimethoxyphenyl)-5-(1-(2-ethylbutyl)piperidin-4-yl)-3-isopropyl-1H-indole]	180 nM	≥ 50000 nM
COc1ccc(-c2[nH]c3ccc(C4CCN(C5CCN(C6COC6)CC5)CC4)cc3c2C)cc1OC [Example 83, 2-(3,4-dimethoxyphenyl)-3-methyl-5-(1′-(oxetan-3-yl)-[1,4′-bipiperidin]-4-yl)-1H-indole]	2630 nM	1550 nM
COc1ccc(-c2[nH]c3ccc(C4CCN(C5CCN(C6CCN(C)CC6)CC5)CC4)cc3c2C)cc1OC [Example 81, 2-(3,4-dimethoxyphenyl)-3-methyl-5-(1″-methyl-[1,4′:1′,4″-terpiperidin]-4-yl)-1H-indole]	538 nM	190 nM
COc1ccc(-c2[nH]c3ccc(C4CCN(C5COC5)CC4)cc3c2C)cc1OC [Example 7, 2-(3,4-dimethoxyphenyl)-3-methyl-5-(1-(oxetan-3-yl)piperidin-4-yl)-1H-indole]	2160 nM	569 nM
COc1ccc(-c2[nH]c3ccc(C4CCN(C5CCN(CCCC(=O)O)CC5)CC4)cc3c2C)cc1OC [Example 70, 4-(4-(2-(3,4-dimethoxyphenyl)-3-methyl-1H-indol-5-yl)-[1,4′-bipiperidin]-1′-yl)butanoic acid]	3750 nM	2280 nM
COc1ccc(-c2[nH]c3ccc(C4CCN(C5CCN(C(C)=O)CC5)CC4)cc3c2C)cc1OC [Example 12, 1-(4-(2-(3,4-dimethoxyphenyl)-3-methyl-1H-indol-5-yl)-[1,4′-bipiperidin]-1′-yl)ethan-1-one]	1340 nM	649 nM
COc1ccc(-c2[nH]c3ccc(C4CCN(C(=O)CNCC(F)(F)F)CC4)cc3c2C(C)C)cc1OC [Example 221, 1-(4-(2-(3,4-dimethoxyphenyl)-3-isopropyl-1H-indol-5-yl)piperidin-1-yl)-2-((2,2,2-trifluoroethyl)amino)ethan-1-one]	162 nM	≥ 50000 nM
COc1ccc(-c2[nH]c3ccc(C4CCN(CC5CCCCN5)CC4)cc3c2C)cc1OC (stereo not drawn) [Example 101, 2-(3,4-dimethoxyphenyl)-3-methyl-5-(1-(piperidin-2-ylmethyl)piperidin-4-yl)-1H-indole]	1790 nM	209 nM
COc1ccc(-c2[nH]c3ccc(C4CCN(CCNC(=O)OC(C)(C)C)CC4)cc3c2C)cc1OC [Example 99, tert-butyl (2-(4-(2-(3,4-dimethoxyphenyl)-3-methyl-1H-indol-5-yl)piperidin-1-yl)ethyl)carbamate]	938 nM	1020 nM
CNCCN1CCC(c2ccc3[nH]c(-c4ccc(OC)c(OC)c4)c(CC4CC4)c3c2)CC1 [Example 117, 2-(4-(3-(cyclopropylmethyl)-2-(3,4-dimethoxyphenyl)-1H-indol-5-yl)piperidin-1-yl)-N-methylethanamine di-trifluoroacetic acid]	1340 nM	882 nM
COc1ccc(-c2[nH]c3ccc(C4CCN(Cc5ccnc6ccccc56)CC4)cc3c2C)cc1OC [Example 32, 4-((4-(2-(3,4-dimethoxyphenyl)-3-methyl-1H-indol-5-yl)piperidin-1-yl)methyl)quinoline]	2480 nM	3590 nM
CCc1c(-c2ccc(OC)c(OC)c2)[nH]c2ccc(C3CCN(C(=O)CN4CCC(N5CCCCC5)CC4)CC3)cc12 [Example 158, 2-([1,4′-bipiperidin]-1′-yl)-1-(4-(2-(3,4-dimethoxyphenyl)-3-ethyl-1H-indol-5-yl)piperidin-1-yl)ethan-1-one]	219 nM	678 nM
